Patent US10752612B2, “PLK4 inhibitors” (LUDWIG INSTITUTE FOR CANCER RESEARCH LTD, priority 2015, dated 2020)

Target: T1, human Plk4 kinase domain (aa 2-275) (Homo sapiens, UniProt O00444)
T1 construct: purified 6×His-tagged human Plk4 kinase domain (aa 2-275); 6xHis; made in house; host or cells: E. coli
T1 sequence (O00444 2-275): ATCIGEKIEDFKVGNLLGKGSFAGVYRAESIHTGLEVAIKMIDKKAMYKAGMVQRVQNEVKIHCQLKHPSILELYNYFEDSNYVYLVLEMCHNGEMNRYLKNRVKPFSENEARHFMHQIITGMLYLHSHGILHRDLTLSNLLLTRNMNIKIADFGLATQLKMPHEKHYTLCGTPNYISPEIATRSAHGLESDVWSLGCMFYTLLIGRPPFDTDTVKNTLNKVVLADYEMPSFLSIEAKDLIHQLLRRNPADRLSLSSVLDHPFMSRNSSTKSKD
Assay: Plk4 kinase assay (ADP-Glo)
Assay type: biochemical
Settings: Table 1
Description: Kinase assays. […] The Plk4 concentration in the final reaction was 2.5-10 nM with a final pH of 8.0. […] Reactions were allowed to proceed for 4-16 hours at 25° C. Detection was performed using ADP-Glo reagent (Promega), following manufacturer's instructions. Luminescence was measured on an Infinite M1000 plate reader (Tecan). Data were fit using Prism (GraphPad) and Kis were calculated from IC50 data using the Cheng and Prusoff equation (37) or the Copeland formalism for tight-binding inhibitors (38).

| Compound | IC50 |
| --- | --- |
| COCCNc1nc(Sc2ccc(NC(=O)C3CC3)cc2)nc(Nc2cc(C)[nH]n2)c1C | < 1000 nM |
| CSc1nc(Nc2cc(C)[nH]n2)c(C)c(N2CCN(CCN(C)C)CC2)n1 | < 1000 nM |
| CCN(CC)c1nc(Sc2ccc(NC(=O)C3CCCC3)cc2)nc(Nc2cc(C)[nH]n2)c1OC | 100 to 1000 nM |
| COc1c(Nc2cc(C)[nH]n2)nc(Sc2ccc(S(=O)(=O)Cc3ccccc3)cc2)nc1N1CCC(CCN(C)C)CC1 | < 1000 nM |
| COc1c(Nc2cc(C)[nH]n2)nc(Sc2ccc(S(=O)(=O)C(F)c3cccc(C#N)c3F)cc2F)nc1N1CCOCC1 (centres unmarked) | < 1000 nM |
| COc1c(Nc2cc(C)[nH]n2)nc(Sc2ccc(S(=O)(=O)C(C)(C)c3c(F)c(F)c(F)c(F)c3F)cc2F)nc1N1CCC(CCN(C)C)CC1 | < 1000 nM |
| COc1c(Nc2cc(C)[nH]n2)nc(Sc2ccc(S(=O)(=O)Cc3c(F)c(F)c(F)c(F)c3F)cc2F)nc1N1CCOCC1 | < 1000 nM |
| COCC(=O)N1CCN(c2nc(SC)nc(Nc3cc(C)[nH]n3)c2C)CC1 | < 1000 nM |
| Cc1cc(Nc2nc(Sc3ccc(N)cc3)nc(N3CCC(O)CC3)c2C)n[nH]1 | < 1000 nM |
| COc1c(Nc2cc(C)[nH]n2)nc(Sc2ccc(S(=O)(=O)Cc3ccccc3)cc2)nc1N1CCN(C2CCNCC2)CC1 | < 1000 nM |
| COc1c(Nc2cc(C)[nH]n2)nc(Sc2ccc(S(=O)(=O)C(F)c3c(F)c(F)cc(F)c3F)cc2F)nc1N1CCOCC1 (centres unmarked) | < 1000 nM |
| Cc1cc(Nc2nc(Sc3ccc(NC(=O)C4CC4)cc3)nc(N(C)C)c2C)n[nH]1 | < 1000 nM |
| CC(=O)Nc1ccc(Sc2nc(Nc3cc(C)[nH]n3)c(C)c(N(CCO)C(C)C)n2)cc1 | < 1000 nM |
| COc1c(Nc2cc(C)[nH]n2)nc(Sc2ccc(S(=O)(=O)C(C)(C)c3cccc([N+](=O)[O-])c3F)cc2F)nc1N1CCC(NC(C)=O)CC1 | < 1000 nM |
| COc1c(Nc2cc(C)[nH]n2)nc(Sc2ccc(S(=O)(=O)C(C)(C)c3cccc([N+](=O)[O-])c3F)cc2F)nc1N1CCN(CC(=O)N(C)C)CC1 | < 1000 nM |
| Cc1ccc(Sc2nc(Nc3cc(C)[nH]n3)c(C)c(N(C)C(C)C)n2)cc1 | < 1000 nM |
| CSc1nc(Nc2cc(C)[nH]n2)c(C)c(N2CCC(O)CC2)n1 | < 1000 nM |
| COc1c(Nc2cc(C)[nH]n2)nc(Sc2ccc(S(=O)(=O)Cc3ccccc3)cc2)nc1N1CCOC[C@@H]1C | < 1000 nM |
| COCCN(C)c1nc(Sc2ccc(NC(=O)C3CC3)cc2)nc(Nc2cc(C)[nH]n2)c1C | < 1000 nM |
| COc1c(Nc2cc(C)[nH]n2)nc(Sc2ccc(S(=O)(=O)Cc3cccc(F)c3F)cc2F)nc1N1CCOCC1 | < 1000 nM |
| CCOc1c(Nc2cc(C)[nH]n2)nc(Sc2ccc(NC(=O)C3CCCC3)cc2)nc1N(C)CC | 100 to 1000 nM |
| COc1c(Nc2cc(C)[nH]n2)nc(Nc2ccc(S(=O)(=O)Cc3ccccc3)cc2)nc1N1CCN(CCN(C)C)CC1 | < 1000 nM |
| COc1c(Nc2cc(C)[nH]n2)nc(Sc2ccc(/C=C/c3cccc([N+](=O)[O-])c3F)cc2F)nc1N1CCOCC1 | < 1000 nM |
| Cc1cc(Nc2nc(Sc3ccc(N)cc3)nc(N(C)C(C)C)c2C)n[nH]1 | < 1000 nM |
| COc1c(Nc2cc(C)[nH]n2)nc(Sc2ccc(S(=O)(=O)C(F)c3cccc([N+](=O)[O-])c3F)cc2F)nc1N1CCOCC1 (centres unmarked) | < 1000 nM |
| COc1c(Nc2cc(C)[nH]n2)nc(Sc2ccc(S(=O)(=O)C(C)(C)c3cccc([N+](=O)[O-])c3F)cc2F)nc1N1CCOCC1 | < 1000 nM |
| COc1c(Nc2cc(C)[nH]n2)nc(Sc2ccc(S(=O)(=O)C3(c4cccc([N+](=O)[O-])c4F)CC3)cc2F)nc1N1CCC(CN)CC1 | < 1000 nM |
| COc1c(Nc2cc(C)[nH]n2)nc(Sc2ccc(S(=O)(=O)C(C)(C)c3c(F)c(F)cc(F)c3F)cc2F)nc1N1CCC(N(C)C)CC1 | < 1000 nM |
| CC(=O)Nc1ccc(Sc2nc(Nc3cc(C)[nH]n3)cc(C3CCN(CCN(C)C)CC3)n2)cc1 | 100 to 1000 nM |
| CNCCN(C)c1nc(Sc2ccc(NC(=O)C3CC3)cc2)nc(Nc2cc(C)[nH]n2)c1C | < 1000 nM |

Continued, values first:

| IC50 | Compound |
| --- | --- |
| 100 to 1000 nM | CCOc1c(Nc2cc(C)[nH]n2)nc(Sc2ccc(NC(=O)C3CCCC3)cc2)nc1N1CCN(CCN(C)C)CC1 |
| 100 to 1000 nM | COc1c(Nc2cc(C)[nH]n2)nc(Sc2ccc(N)cc2)nc1N1CCN(CCN(C)C)CC1 |
| < 1000 nM | COc1c(Nc2cc(C)[nH]n2)nc(Sc2ccc(S(=O)(=O)Cc3cc(F)cc([N+](=O)[O-])c3)cc2)nc1N1CCN(CCN(C)C)CC1 |
| < 1000 nM | COc1c(Nc2cc(C)[nH]n2)nc(Sc2ccc(NC(C)=O)cc2)nc1N1CCN(CCN(C)C)CC1 |
| < 1000 nM | COc1c(Nc2cc(C)[nH]n2)nc(Sc2ccc(NC(=O)C3CCCC3)cc2)nc1N1CCN(CCN(C)C)CC1 |
| 100 to 1000 nM | CCOc1c(Nc2cc(C)[nH]n2)nc(Sc2ccc(NC(=O)C3CCCC3)cc2)nc1N1CCN(CC2CC2)CC1 |
| < 1000 nM | CNCCN1CCN(c2nc(Sc3ccc(NC(=O)C4CC4)cc3)nc(Nc3cc(C)[nH]n3)c2OC)CC1 |
| < 1000 nM | COc1c(Nc2cc(C)[nH]n2)nc(Sc2ccc(NC(C)=O)cc2)nc1N1CCN(CC(=O)N2CCOCC2)CC1 |
| < 1000 nM | COc1c(Nc2cc(C)[nH]n2)nc(Sc2ccc(S(=O)(=O)Cc3cccc(Cl)c3)cc2)nc1N1CCN(CCN(C)C)CC1 |
| < 1000 nM | COc1c(Nc2cc(C)[nH]n2)nc(Sc2ccc(NC(C)=O)cc2)nc1N1CCN(CCN(C)c2ccccc2)CC1 |
| < 1000 nM | COCCNc1nc(Sc2ccc(NC(C)=O)cc2)nc(Nc2cc(C)[nH]n2)c1C |
| < 1000 nM | COCC(=O)N1CCN(c2nc(Sc3ccc(C)cc3)nc(Nc3cc(C)[nH]n3)c2C)CC1 |
| < 1000 nM | COc1c(Nc2cc(C)[nH]n2)nc(Sc2ccc(S(=O)(=O)Cc3ccccc3)cc2)nc1N1CCN(CCN2CCCC2)CC1 |
| < 1000 nM | COCC(=O)N1CCN(c2nc(Sc3ccc(N)cc3)nc(Nc3cc(C)[nH]n3)c2C)CC1 |
| < 1000 nM | CC(=O)Nc1ccc(Sc2nc(Nc3cc(C)[nH]n3)c(C)c(N3CCOC[C@H]3C)n2)cc1 |
| < 1000 nM | COc1c(Nc2cc(C)[nH]n2)nc(Sc2ccc(NC(C)=O)cc2)nc1N1CCC(CC(=O)N2CCCCC2)CC1 |
| < 1000 nM | COc1c(Nc2cc(C)[nH]n2)nc(Sc2ccc(S(=O)(=O)Cc3cccc([N+](=O)[O-])c3C#N)cc2)nc1N1CCN(CCN(C)C)CC1 |
| 100 to 1000 nM | CCOc1c(Nc2cc(C)[nH]n2)nc(Sc2ccc(NC(=O)C3CCCC3)cc2)nc1N1CCCCC1 |
| 100 to 1000 nM | CCOc1c(Nc2cc(C)[nH]n2)nc(Sc2ccc(NC(=O)C3CC3)cc2)nc1N1CCN(C2CCN(C)CC2)CC1 |
| < 1000 nM | COC(=O)c1ccccc1CS(=O)(=O)c1ccc(Sc2nc(Nc3cc(C)[nH]n3)c(OC)c(N3CCN(CCN(C)C)CC3)n2)cc1 |
| < 1000 nM | CCOc1c(Nc2cc(C)[nH]n2)nc(Sc2ccc(NC(=O)C3CC3)cc2)nc1N1CCNCC1 [drawing 122] |
| < 1000 nM | COc1c(Nc2cc(C)[nH]n2)nc(Sc2ccc(NC(=O)C3CC3)cc2)nc1N1CCN(C2CCN(C)CC2)CC1 |

| IC50 | Compound |
| --- | --- |
| < 1000 nM | CCS(=O)(=O)c1ccc(Sc2nc(Nc3cc(C)[nH]n3)c(OC)c(N3CCN(CCN(C)C)CC3)n2)c(F)c1 |
| < 1000 nM | COc1c(Nc2cc(C)[nH]n2)nc(Sc2ccc(NC(C)=O)cc2)nc1N(C)C(C)C |
| < 1000 nM | CNC1CCN(c2nc(Sc3ccc(NC(C)=O)cc3)nc(Nc3cc(C)[nH]n3)c2C)CC1 |
| < 1000 nM | COc1c(Nc2cc(C)[nH]n2)nc(Sc2ccc(S(=O)(=O)Cc3ccc(F)cc3)cc2)nc1N1CCN(CCN(C)C)CC1 |
| < 1000 nM | COc1c(Nc2cc(C)[nH]n2)nc(Sc2ccc(NC(C)=O)cc2)nc1N1CCN(CCN)CC1 |
| < 1000 nM | COc1c(Nc2cc(C)[nH]n2)nc(Sc2ccc(NC(C)=O)cc2)nc1N1CCN(CCNC(N)=O)CC1 |
| < 1000 nM | COc1c(Nc2cc(C)[nH]n2)nc(Sc2ccc(NC(=O)C3CC3)cc2)nc1N1CCCCC1 |
| < 1000 nM | Cc1cc(Nc2nc(Sc3ccc(NC(=O)C4CC4)cc3)nc(N3CCN(CCN(C)C)CC3)c2C)n[nH]1 |
| < 1000 nM | COc1c(Nc2cc(C)[nH]n2)nc(Sc2ccc(S(=O)(=O)Cc3ccccc3C(N)=O)cc2)nc1N1CCN(CCN(C)C)CC1 |
| 100 to 1000 nM | COc1c(Nc2cc(C)[nH]n2)nc(Sc2ccc(NC(C)=O)cc2)nc1N1CCCCC1C (centres unmarked) |
| < 1000 nM | COc1c(Nc2cc(C)[nH]n2)nc(Sc2ccc(S(=O)(=O)Cc3ccccc3)cc2)nc1N1CCN(CCN(C)C)CC1 |
| < 1000 nM | COC(=O)CN1CCN(c2nc(Sc3ccc(NC(C)=O)cc3)nc(Nc3cc(C)[nH]n3)c2OC)CC1 |
| < 1000 nM | COc1c(Nc2cc(C)[nH]n2)nc(Sc2ccc(NC(C)=O)cc2)nc1N1CCN(CCN2CCN(C)CC2)CC1 |
| 100 to 1000 nM | CCOc1c(Nc2cc(C)[nH]n2)nc(Sc2ccc(NC(=O)C3CCCC3)cc2)nc1N1CCOCC1 |
| < 1000 nM | COc1c(Nc2cc(C)[nH]n2)nc(Sc2ccc(S(=O)(=O)C(C)(C)c3cccnc3)cc2)nc1N1CCN(CCN(C)C)CC1 |
| < 1000 nM | CNC(=O)Nc1ccc(Sc2nc(Nc3cc(C)[nH]n3)c(C)c(N3CCN(C(=O)COC)CC3)n2)cc1 |
| 100 to 1000 nM | CCOc1c(Nc2cc(C)[nH]n2)nc(Sc2ccc(NC(=O)C3CC3)cc2)nc1N1CCN(C(=O)CCN(C)C)CC1 |
| < 1000 nM | COc1c(Nc2cc(C)[nH]n2)nc(Sc2ccc(S(=O)(=O)Cc3cccc(N(C)C)c3)cc2)nc1N1CCN(CCN(C)C)CC1 |
| < 1000 nM | COCCN1CCN(c2nc(Sc3ccc(NC(=O)C4CCCC4)cc3)nc(Nc3cc(C)[nH]n3)c2OC)CC1 |
| 100 to 1000 nM | COc1c(Nc2cc(C)[nH]n2)nc(Sc2ccc(NC(C)=O)cc2)nc1N1CCN(CCN2CCC(O)CC2)CC1 |
| < 1000 nM | CC(=O)Nc1ccc(Sc2nc(Nc3cc(C)[nH]n3)c(C)c(N3CCC(O)CC3)n2)cc1 |
| < 1000 nM | CC(=O)Nc1ccc(Sc2nc(Nc3cc(C)[nH]n3)cc(N3CCN(CCN(C)C)CC3C)n2)cc1 (centres unmarked) |
